Measurements: PubChem BioAssay (NCI)
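96-well plates; 48 h exposure; 5 concentrations. Endpoints by linear interpolation between flanking doses. Not reached: highest tested concentration assigned. Here, GI50 denotes the concentration required for 50% inhibition of growth. At the TGI there is no net growth.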

Key:
Experiment in all cases: NCI-60 cell line screen, 48 h
786-0 renal = tested on: 786-0 renal
A498 renal = tested on: A498 renal
A549 NSCLC = tested on: A549 NSCLC
ACHN renal = tested on: ACHN renal
CAKI-1 renal = tested on: CAKI-1 renal
CCRF-CEM leukemia = tested on: CCRF-CEM leukemia
COLO 205 colon = tested on: COLO 205 colon
DMS 114 small cell lung = tested on: DMS 114 small cell lung
DMS 273 small cell lung = tested on: DMS 273 small cell lung
EKVX NSCLC = tested on: EKVX NSCLC
HCC-2998 colon = tested on: HCC-2998 colon
HCT-116 colon = tested on: HCT-116 colon
HCT-15 colon = tested on: HCT-15 colon
HL-60(TB) leukemia = tested on: HL-60(TB) leukemia
HOP-62 NSCLC = tested on: HOP-62 NSCLC
HOP-92 NSCLC = tested on: HOP-92 NSCLC
HT29 colon = tested on: HT29 colon
IGROV1 ovarian = tested on: IGROV1 ovarian
K-562 leukemia = tested on: K-562 leukemia
KM12 colon = tested on: KM12 colon
KM20L2 colon = tested on: KM20L2 colon
LOX IMVI melanoma = tested on: LOX IMVI melanoma
LXFL 529 NSCLC = tested on: LXFL 529 NSCLC
M14 melanoma = tested on: M14 melanoma
M19-MEL melanoma = tested on: M19-MEL melanoma
MALME-3M melanoma = tested on: MALME-3M melanoma
MOLT-4 leukemia = tested on: MOLT-4 leukemia
NCI-H226 lung = tested on: NCI-H226 lung
NCI-H23 lung = tested on: NCI-H23 lung
NCI-H460 lung = tested on: NCI-H460 lung
NCI-H522 lung = tested on: NCI-H522 lung
OVCAR-3 ovarian = tested on: OVCAR-3 ovarian
OVCAR-4 ovarian = tested on: OVCAR-4 ovarian
OVCAR-5 ovarian = tested on: OVCAR-5 ovarian
OVCAR-8 ovarian = tested on: OVCAR-8 ovarian
RPMI-8226 leukemia = tested on: RPMI-8226 leukemia
RXF 393 renal = tested on: RXF 393 renal
RXF-631 renal = tested on: RXF-631 renal
SF-295 CNS = tested on: SF-295 CNS
SF-539 CNS = tested on: SF-539 CNS
SK-MEL-2 melanoma = tested on: SK-MEL-2 melanoma
SK-MEL-28 melanoma = tested on: SK-MEL-28 melanoma
SK-MEL-5 melanoma = tested on: SK-MEL-5 melanoma
SK-OV-3 ovarian = tested on: SK-OV-3 ovarian
SN12C renal = tested on: SN12C renal
SNB-19 CNS = tested on: SNB-19 CNS
SNB-75 CNS = tested on: SNB-75 CNS
SNB-78 CNS = tested on: SNB-78 CNS
SR leukemia = tested on: SR leukemia
SW-620 colon = tested on: SW-620 colon
TK-10 renal = tested on: TK-10 renal
U251 CNS = tested on: U251 CNS
UACC-257 melanoma = tested on: UACC-257 melanoma
UACC-62 melanoma = tested on: UACC-62 melanoma
UO-31 renal = tested on: UO-31 renal
XF 498 CNS = tested on: XF 498 CNS

CCC[CH2][Sn]1([CH2]CCC)[O]CC(Cc2ccccc2)[O]1 (configuration not stated)
GI50 (786-0 renal): 1.86 µM
TGI (786-0 renal): 3.73 µM
GI50 (A498 renal): 2.77 µM
TGI (A498 renal): 8.22 µM
GI50 (A549 NSCLC): 15.3 µM
TGI (A549 NSCLC): 28.9 µM
GI50 (ACHN renal): 2.22 µM
TGI (ACHN renal): 4.39 µM
GI50 (CAKI-1 renal): 1.51 µM
TGI (CAKI-1 renal): 4.45 µM
GI50 (CCRF-CEM leukemia): 1.22 µM
TGI (CCRF-CEM leukemia): 4.57 µM
GI50 (COLO 205 colon): 2.55 µM
TGI (COLO 205 colon): 5.7 µM
GI50 (DMS 114 small cell lung): 1.72 µM
TGI (DMS 114 small cell lung): 3.59 µM
GI50 (DMS 273 small cell lung): 2.81 µM
TGI (DMS 273 small cell lung): 11 µM
GI50 (EKVX NSCLC): 2.39 µM
TGI (EKVX NSCLC): 8.77 µM
GI50 (HCC-2998 colon): 7.25 µM
TGI (HCC-2998 colon): 20.2 µM
GI50 (HCT-116 colon): 3.75 µM
TGI (HCT-116 colon): 13.5 µM
GI50 (HCT-15 colon): 2.24 µM
TGI (HCT-15 colon): 5.82 µM
GI50 (HL-60(TB) leukemia): 0.51 µM
TGI (HL-60(TB) leukemia): 2.31 µM
GI50 (HOP-62 NSCLC): 4.04 µM
TGI (HOP-62 NSCLC): 19.4 µM
GI50 (HOP-92 NSCLC): 2.9 µM
TGI (HOP-92 NSCLC): 8.67 µM
GI50 (HT29 colon): 4.43 µM
TGI (HT29 colon): 14.5 µM
GI50 (IGROV1 ovarian): 3.8 µM
TGI (IGROV1 ovarian): 13.8 µM
GI50 (K-562 leukemia): 1.67 µM
TGI (K-562 leukemia): 6.64 µM
GI50 (KM12 colon): 3.77 µM
TGI (KM12 colon): 14.4 µM
GI50 (KM20L2 colon): 5.33 µM
TGI (KM20L2 colon): 18.2 µM
GI50 (LOX IMVI melanoma): 1.68 µM
TGI (LOX IMVI melanoma): 3.63 µM
GI50 (LXFL 529 NSCLC): 1.15 µM
TGI (LXFL 529 NSCLC): 2.39 µM
GI50 (M14 melanoma): 2.3 µM
TGI (M14 melanoma): 5.51 µM
GI50 (M19-MEL melanoma): 2.83 µM
TGI (M19-MEL melanoma): 15.6 µM
GI50 (MALME-3M melanoma): 0.941 µM
TGI (MALME-3M melanoma): 3.51 µM
GI50 (MOLT-4 leukemia): 1.64 µM
TGI (MOLT-4 leukemia): 6.07 µM
GI50 (NCI-H226 lung): 15.4 µM
TGI (NCI-H226 lung): 29.5 µM
GI50 (NCI-H23 lung): 1.53 µM
TGI (NCI-H23 lung): 4.05 µM
GI50 (NCI-H460 lung): 11 µM
TGI (NCI-H460 lung): 23.4 µM
GI50 (NCI-H522 lung): 0.259 µM
TGI (NCI-H522 lung): 0.93 µM
GI50 (OVCAR-3 ovarian): 2.34 µM
TGI (OVCAR-3 ovarian): 7.42 µM
GI50 (OVCAR-4 ovarian): 13.2 µM
TGI (OVCAR-4 ovarian): 26 µM
GI50 (OVCAR-5 ovarian): 11.2 µM
TGI (OVCAR-5 ovarian): 23.3 µM
GI50 (OVCAR-8 ovarian): 2.61 µM
TGI (OVCAR-8 ovarian): 6.59 µM
GI50 (RPMI-8226 leukemia): 0.312 µM
TGI (RPMI-8226 leukemia): 3.62 µM
GI50 (RXF 393 renal): 1.47 µM
TGI (RXF 393 renal): 2.84 µM
GI50 (RXF-631 renal): 1.57 µM
TGI (RXF-631 renal): 2.94 µM
GI50 (SF-295 CNS): 2.1 µM
TGI (SF-295 CNS): 6.3 µM
GI50 (SF-539 CNS): 1.87 µM
TGI (SF-539 CNS): 4.15 µM
GI50 (SK-MEL-2 melanoma): 1.54 µM
TGI (SK-MEL-2 melanoma): 3.45 µM
GI50 (SK-MEL-28 melanoma): 1.58 µM
TGI (SK-MEL-28 melanoma): 5.24 µM
GI50 (SK-MEL-5 melanoma): 3.09 µM
TGI (SK-MEL-5 melanoma): 14.2 µM
GI50 (SK-OV-3 ovarian): 12 µM
TGI (SK-OV-3 ovarian): 25.1 µM
GI50 (SN12C renal): 3.5 µM
TGI (SN12C renal): 11.7 µM
GI50 (SNB-19 CNS): 3.45 µM
TGI (SNB-19 CNS): 11.7 µM
GI50 (SNB-75 CNS): 2.76 µM
TGI (SNB-75 CNS): 7.74 µM
GI50 (SNB-78 CNS): 2.61 µM
TGI (SNB-78 CNS): 7.46 µM
GI50 (SR leukemia): 1.35 µM
TGI (SR leukemia): 4.84 µM
GI50 (SW-620 colon): 1.63 µM
TGI (SW-620 colon): 3.48 µM
GI50 (TK-10 renal): 2.64 µM
TGI (TK-10 renal): 7.27 µM
GI50 (U251 CNS): 1.85 µM
TGI (U251 CNS): 3.91 µM
GI50 (UACC-257 melanoma): 1.88 µM
TGI (UACC-257 melanoma): 5.27 µM
GI50 (UACC-62 melanoma): 1.7 µM
TGI (UACC-62 melanoma): 3.69 µM
GI50 (UO-31 renal): 6.17 µM
TGI (UO-31 renal): 19 µM
GI50 (XF 498 CNS): 1.74 µM
TGI (XF 498 CNS): 3.23 µM
